{
  "source": "patent US7544497B2",
  "about": "“Compositions for manipulating the lifespan and stress response of cells and organisms” (President and Fellows of Harvard College, priority 2003, dated 2009)",
  "key": {"rDNA recombination": {"test_system": "rDNA recombination", "experiment": "Ribosomal DNA recombination frequency (loss of ADE2 marker)", "assay_type": "cell-based, S. cerevisiae", "conditions": "SIR2-dependent"}, "Human 293 cells": {"test_system": "Human 293 cells", "experiment": "Survival of 293 cells (Coulter counter)", "assay_type": "cell-based", "conditions": "50 micromolar", "experimental": "Human 293 were grown to exponential phase under standard conditions and subjected to a dose of compound (50 micromolar) for 96 hours. The number of live cells each time point was counted using a Coulter counter."}, "[1]": {"test_system": "lysine 382 of p53 in U2OS osteosarcoma cells", "experiment": "p53 Ac-K382 Western blot after UV radiation", "assay_type": "cell-based, human"}, "recombinant SIR-2.1": {"target": "T1, recombinant SIR-2.1 (Caenorhabditis elegans, UniProt Q21921)", "T1 sequence (Q21921 1-607)": "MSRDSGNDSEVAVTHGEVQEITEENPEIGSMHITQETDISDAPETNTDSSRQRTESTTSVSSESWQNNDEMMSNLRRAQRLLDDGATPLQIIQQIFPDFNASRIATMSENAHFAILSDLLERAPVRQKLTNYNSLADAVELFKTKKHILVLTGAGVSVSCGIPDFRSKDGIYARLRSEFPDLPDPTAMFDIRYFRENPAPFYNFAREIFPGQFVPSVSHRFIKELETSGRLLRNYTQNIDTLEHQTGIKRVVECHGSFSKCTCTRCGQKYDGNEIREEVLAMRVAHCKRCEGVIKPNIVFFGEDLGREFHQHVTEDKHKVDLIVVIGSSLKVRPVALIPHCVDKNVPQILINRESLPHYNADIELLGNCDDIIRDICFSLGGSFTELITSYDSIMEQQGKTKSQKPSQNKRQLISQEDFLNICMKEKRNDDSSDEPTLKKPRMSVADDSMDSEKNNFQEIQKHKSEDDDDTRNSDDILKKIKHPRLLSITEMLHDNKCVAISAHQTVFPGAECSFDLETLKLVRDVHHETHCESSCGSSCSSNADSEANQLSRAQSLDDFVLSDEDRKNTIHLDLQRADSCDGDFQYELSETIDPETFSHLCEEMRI", "experiment": "SIR-2.1 deacetylation assay (Fluor de Lys)"}, "rDNA silencing": {"test_system": "rDNA silencing", "experiment": "Ribosomal DNA silencing assay (URA3 reporter)", "assay_type": "cell-based, S. cerevisiae", "experimental": "Ribosomal DNA silencing assays using the URA3 reporters were performed as previously described^26. Ribosomal DNA recombination frequencies were determined by plating W303AR cells^37 on YPD medium with low adenine/histidine and counting the fraction of half-red sectored colonies using Bio-Rad Quantity One software as previously described^35. At least 6000 cells were analyzed per experiment and all experiments were performed in triplicate. All strains were pre-grown for 15 hours with the relevant compound prior to plating."}},
  "data": [
    {"smiles": "Oc1ccc(/C=C/c2cc(O)cc(O)c2)cc1", "note": "[Resveratrol, 3,5,4′-Trihydroxy-trans-stilbene]", "values": [
      {"measurement": "reduction of the frequency of rDNA recombination", "setting": "rDNA recombination", "result": "~60", "unit": "%"},
      {"measurement": "Survival of 293 cells", "setting": "Human 293 cells; 0 h", "result": 100, "unit": "%"},
      {"measurement": "Survival of 293 cells", "setting": "Human 293 cells; 48 h", "result": 5, "unit": "%"},
      {"measurement": "Survival of 293 cells", "setting": "Human 293 cells; 96 h", "result": 0, "unit": "%"},
      {"measurement": "level of Ac-K382 compared to untreated cells", "setting": "[1]; 0.5 μM resveratrol, 4 hours pre-treatment, UV radiation", "result": "marked decrease"},
      {"measurement": "level of Ac-K382 at higher concentrations", "setting": "[1]; >50 μM resveratrol", "result": "the effect was reversed"},
      {"measurement": "effect on Km of SIR-2.1 for NAD+", "setting": "recombinant SIR-2.1; 100 μM resveratrol, 10 μM Fluor de Lys", "result": "lowered"},
      {"measurement": "stimulation of deacetylation, SIR-2.1 (up to)", "setting": "recombinant SIR-2.1; dose-dependent, 200 μM NAD+, 10 μM FdL", "result": "up to 2.5 fold"},
      {"measurement": "effect on rDNA silencing", "setting": "rDNA silencing", "result": "only minor effects"}
    ]}
  ]
}
